Test system: 422866-222-R5-J1-PDC complex spheroid viability
Assay: Anticancer human tumor 422866-222-R5-J1-PDC patient-derived pancreatic adenocarcinoma cell line growth inhibition [POLQ]
Conditions: for IC50: curve of first compound; for viability, T/C: stronger effect = lower value
Experimental: Multicellular complex tumor spheroid response to Polymerase (POL) inhibitors (novobiocin, ART-558, RP6685) in combination with a variety of drugs and investigational agents in selected tumor cell lines
The POL inhibitors (novobiocin, ART-558, and RP6685) were evaluated both individually and in combination with standard of care and investigational anticancer small molecules within a complex spheroid model of solid tumors. . Complex spheroids include a stromal component modeled by human endothelial cells (HUVEC) and fibroblasts modeled by human mesenchymal stem cells (MSCs). The concentration ranges selected for each drug and investigational agent were based upon clinically achievable concentrations if the clinical Cmax of the agent was known.
Compounds. The drugs and investigational agents: novobiocin (NSC847541), ART-558 (NSC835418), RP-6685 (NSC848927), peposertib (NSC802822), ceralasertib (NSC780249), elimusertib (NSC800525), camonsertib (NSC841442), AZD-1390 (NSC803789), olaparib (NSC753686), talazoparib (NSC767125), rucaparib (NSC756644), sotorasib (NSC818433), MRTX-1133 (NSC836407), SN-38 (NSC673596), topotecan (NSC609699), epotoside (NSC141540), doxorubicin (NSC123127), gemcitabine (NSC613327), 5-fluorouracil (NSC19893), paclitaxel (NSC125973), vemurafenib (NSC761431), MSA-2 (NSC828583), SN-011 (NSC837082), adavosertib (NSC754352), prexasertib (NSC758257), carboplatin (NSC241240) and oxaliplatin (NSC266046), were obtained from the National Cancer Institute (NCI) Developmental Therapeutics Program Chemical Repository (21). The FDA-approved anticancer drug set is available from the Developmental Therapeutics Program at https://dtp.cancer.gov/organization/dscb/obtaining/. […] The stock solutions were prepared in dimethyl sulfoxide (DMSO, Sigma-Aldrich, St. Louis, MO, cat. D2650), except for the platinum compounds which were prepared in saline (Quality Biological, Gaithersburg, MD, cat. 114-055-101), at 800-fold the tested concentration and stored at -70 degrees C prior to their use. All drugs and investigational agents were tested over a range starting from a high concentration at or near the clinical Cmax and decreasing in half-log increments. If the clinical Cmax for an agent had not been determined, the highest concentration tested was 10 microM, except for SN-38, which was tested at a high concentration of 1 microM.
Cell Culture. All cells were maintained in an incubator at 37 degrees C and 5% CO2 with 95% humidity. The PDC lines were cultured according to standard operating procedures established by the NCI PDMR (https://pdmr.cancer.gov). Table 3 of the manuscript, lists the cell lines along with the number of the three cell types plated to form the mct-spheroids and media for tumor cell growth. After thawing, all PDC lines, except 997537-175-T-J1-PDC and 415267-285-R-J2-PDC, were cultured in Matrigel-coated flasks prepared with a working solution of 1X Ham's F-12 nutrient mix, without supplementation (Thermo Fisher Scientific, cat. 11765054), 100 U/mL penicillin-streptomycin (Thermo Fisher Scientific, cat. 15140122), and 2.5% Matrigel (Corning Inc., Corning, NY, cat. 354248) for the first three passages. The two PDC lines 997537-175-T-J1-PDC and 415267-285-R-J2-PDC were cultured on uncoated flasks. The 857933-349-R-J2-PDC line was cultured in 6C/Colon 1B media containing advanced DMEM/F-12 (Thermo Fisher Scientific, cat. 12634028), 10 mM HEPES (Thermo Fisher Scientific, cat. 15630080), 1X GlutaMAX supplement (Thermo Fisher Scientific, cat. 35050061), 0.1 mg/mL primocin (InvivoGen, San Diego, CA, cat. ant-pm-2), 10% defined fetal bovine serum, heat inactivated (HyClone Laboratories Inc., Logan, UT, cat. SH30070.03HI), 50% L-WRN conditioned media (ATCC, cat. CRL-3276), 1.25 mM N-Acetyl-L-cysteine (Sigma-Aldrich, cat. A9165), 10 mM nicotinamide (Sigma-Aldrich, cat. N0636), 1X B-27 supplement (Thermo Fisher Scientific, cat. 17504044), 1X N-2 supplement (Thermo Fisher Scientific, cat. […]

[1] = second compound 0.0316 µM, first compound 0.0316 µM
[2] = second compound 0.0316 µM, first compound 0.1 µM
[3] = second compound 0.0316 µM, first compound 0.316 µM
[4] = second compound 0.0316 µM, first compound 1 µM
[5] = second compound 0.0316 µM, first compound 3.16 µM
[6] = second compound 0.0316 µM, first compound 10 µM
[7] = second compound 0.1 µM, first compound 0.0316 µM
[8] = second compound 0.1 µM, first compound 0.1 µM
[9] = second compound 0.1 µM, first compound 0.316 µM
[10] = second compound 0.1 µM, first compound 1 µM
[11] = second compound 0.1 µM, first compound 3.16 µM
[12] = second compound 0.1 µM, first compound 10 µM
[13] = second compound 0.316 µM, first compound 0.0316 µM
[14] = second compound 0.316 µM, first compound 0.1 µM
[15] = second compound 0.316 µM, first compound 0.316 µM
[16] = second compound 0.316 µM, first compound 1 µM
[17] = second compound 0.316 µM, first compound 3.16 µM
[18] = second compound 0.316 µM, first compound 10 µM
[19] = second compound 1 µM, first compound 0.0316 µM
[20] = second compound 1 µM, first compound 0.1 µM
[21] = second compound 1 µM, first compound 0.316 µM
[22] = second compound 1 µM, first compound 1 µM
[23] = second compound 1 µM, first compound 3.16 µM
[24] = second compound 1 µM, first compound 10 µM
[25] = second compound 3.16 µM, first compound 0.0316 µM
[26] = second compound 3.16 µM, first compound 0.1 µM
[27] = second compound 3.16 µM, first compound 0.316 µM
[28] = second compound 3.16 µM, first compound 1 µM
[29] = second compound 3.16 µM, first compound 3.16 µM
[30] = second compound 3.16 µM, first compound 10 µM
[31] = second compound 10 µM, first compound 0.0316 µM
[32] = second compound 10 µM, first compound 0.1 µM
[33] = second compound 10 µM, first compound 0.316 µM
[34] = second compound 10 µM, first compound 1 µM
[35] = second compound 10 µM, first compound 3.16 µM
[36] = second compound 10 µM, first compound 10 µM
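Note: spheroids exposed to compounds for one week before readout.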
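Throughout, for viability, T/C: percent of DMSO vehicle wells luminescence so 100% = untreated viability.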

With CC1COCCN1c1cc(C2(O)CC3CCC(C2)O3)c2cnn(-c3ccn[nH]3)c2n1 (centres undefined) + Nc1ccc(C#CCN(C(=O)Cc2ncc(C(F)(F)F)cc2C(F)(F)F)c2ccc(F)cc2)nn1 the IC50 (second compound 0.0316 µM) was over 10000 nM, the IC50 (second compound 0.1 µM) was under 31.6 nM and the IC50 (second compound 0.316 µM) was under 31.6 nM. The IC50 (second compound 1 µM) was over 10000 nM, the IC50 (second compound 3.16 µM) was 10000 nM and the IC50 (second compound 10 µM) was under 31.6 nM. The viability, T/C [1] was 72%, the viability, T/C [2] was 39.4% and the viability, T/C [3] was 40.7%. It also gave a viability, T/C [4] of 74.5%, a viability, T/C [5] of 73.5% and a viability, T/C [6] of 61.1%. It also gave a viability, T/C [7] of 58.2%, a viability, T/C [8] of 39.4% and a viability, T/C [9] of 48.5%. For the same molecule, the viability, T/C [10] was 71.6%, the viability, T/C [11] was 83.6% and the viability, T/C [12] was 63.8%. The viability, T/C [13] was 61.3%, the viability, T/C [14] was 37% and the viability, T/C [15] was 42.2%. It also gave a viability, T/C [16] of 74.8%, a viability, T/C [17] of 73.8% and a viability, T/C [18] of 59.9%. The viability, T/C [19] was 64.3%, the viability, T/C [20] was 39.5% and the viability, T/C [21] was 37.3%. It also gave a viability, T/C [22] of 71.4%, a viability, T/C [23] of 65.5% and a viability, T/C [24] of 57.9%. For the same molecule, the viability, T/C [25] was 97.4%, the viability, T/C [26] was 38.7% and the viability, T/C [27] was 36.9%. The viability, T/C [28] was 77.2%, the viability, T/C [29] was 63.2% and the viability, T/C [30] was 69%. It also gave a viability, T/C [31] of 60.7%, a viability, T/C [32] of 41.5% and a viability, T/C [33] of 47.1%. For the same molecule, the viability, T/C [34] was 83.8%, the viability, T/C [35] was 65.3% and the viability, T/C [36] was 63.4%.

CC1COCCN1c1cc(C2(S(C)(=N)=O)CC2)nc(-c2ccnc3[nH]ccc23)n1 (centres undefined) + Nc1ccc(C#CCN(C(=O)Cc2ncc(C(F)(F)F)cc2C(F)(F)F)c2ccc(F)cc2)nn1 showed an IC50 (second compound 0.0316 µM) of 2460 nM, an IC50 (second compound 0.1 µM) of 1830 nM and an IC50 (second compound 0.316 µM) of 1750 nM. It also gave an IC50 (second compound 1 µM) of 2120 nM, an IC50 (second compound 3.16 µM) of 1740 nM and an IC50 (second compound 10 µM) of 1900 nM. For the same molecule, the viability, T/C [1] was 105%, the viability, T/C [2] was 81.7% and the viability, T/C [3] was 80.9%. It also gave a viability, T/C [4] of 64.5%, a viability, T/C [5] of 38% and a viability, T/C [6] of 42.6%. The viability, T/C [7] was 92%, the viability, T/C [8] was 96.5% and the viability, T/C [9] was 95.3%. It also gave a viability, T/C [10] of 58.9%, a viability, T/C [11] of 41.4% and a viability, T/C [12] of 42.2%. It also gave a viability, T/C [13] of 89.8%, a viability, T/C [14] of 96% and a viability, T/C [15] of 89.7%. It also gave a viability, T/C [16] of 65.6%, a viability, T/C [17] of 32.5% and a viability, T/C [18] of 34%. For the same molecule, the viability, T/C [19] was 107%, the viability, T/C [20] was 112% and the viability, T/C [21] was 92.4%. For the same molecule, the viability, T/C [22] was 70.5%, the viability, T/C [23] was 38.7% and the viability, T/C [24] was 28.2%. The viability, T/C [25] was 87.3%, the viability, T/C [26] was 108% and the viability, T/C [27] was 98.8%. The viability, T/C [28] was 57.2%, the viability, T/C [29] was 40.8% and the viability, T/C [30] was 43.5%. The viability, T/C [31] was 109%, the viability, T/C [32] was 117% and the viability, T/C [33] was 102%. The viability, T/C [34] was 65.9%, the viability, T/C [35] was 37.8% and the viability, T/C [36] was 31.8%.

Source: PubChem BioAssay AID1963844 (Molecular Pharmacology Branch, DTP, NCI, 2024)
